Results: article PMC10314922, “Fluorescence lifetime FRET assay for live-cell high-throughput screening of the cardiac SERCA pump yields multiple classes of small-molecule allosteric modulators” (Scientific Reports, 2023)
Values joined by “and” are separate entries in the source; they are usually repeats but may differ in a detail not shown here. Equal values may be shown once.

How the values were obtained:
[1] = target: T1, human two-color SERCA2a (2CS) biosensor (Homo sapiens, UniProt P16615, INS508[…]); experiment: FRET concentration response curves (FLT-FRET) with the 2CS biosensor in live HEK cells; assay type: cell-based
T1 construct: expressed in transfected cells
Source text: A two-color intramolecular human SERCA2a (2CS) biosensor, based on human cardiac SERCA2a fused to green fluorescent protein (eGFP) and red fluorescent protein (tagRFP) was developed to detect structural changes that are related to the functional changes of SERCA[20],[22],[25]. Briefly, tagRFP was genetically fused to the N-terminus of SERCA (A-domain) and eGFP was inserted as an intrasequence tag before residue 509 in the nucleotide-binding domain (N-domain)[60],[61]. Donor-only and acceptor-only (1CS) biosensors were created in a similar manner as the 2CS biosensor but with the construct containing either only eGFP or only tag-RFP, respectively. […] A null-biosensor construct consisting of eGFP and tagRFP connected by a 32-residue unstructured flexible linker peptide (G32R) was created as described previously[23],[25]. All constructs were cloned into expression vectors containing the genes for antibiotic resistance to G418, puromycin, or blasticidin.
Stable cell lines were generated using either human embryonic kidney (HEK) HEK293 (ATCC, Manassas, VA) or HEK293-6E (National Research Council, Canada) cells. Briefly, cells were transiently transfected with 2CS, 1CS, or G32R null-biosensor plasmids using Lipofecatime 3000 or 293fectin (Thermo Fisher Scientific). Flow cytometry was used to select and enrich for the population of cells expressing respective biosensors. Stable HEK293 cell lines were maintained in phenol red-free DMEM media (Gibco, Waltham, MA) supplemented with 2 mM GlutaMAX (Gibco, Waltham, MA), 10% fetal bovine serum (FBS) (Atlanta Biologicals, Lawrenceville, GA), 1 IU/mL penicillin/streptomycin (Gibco, Waltham, MA), and 250 μg/mL G418 (Fisher Scientific). Stable HEK293-6E cell lines were maintained in F17 media (Sigma Aldrich) supplemented with Kolliphor p188 (Sigma Aldrich, St. Louis, MO), […] GlutaMAX, and either 1 μg/mL puromycin (Invitrogen, Carlsbad, CA) or 2 μg/mL blasticidin (Goldbio) as a selection antibiotic. All cell lines were grown at 37 °C with 5% CO2.
FRET CRC assay plates (0.78–100 μM compound range) with at least ten different compound concentrations were made by adding the appropriate volume of compound or DMSO into black 384 well plates (Greiner Bio-One) using a Mosquito HV (SPTLabTech, United Kingdom). Subsequent Ca^2+-ATPase activity and Ca^2+-transport CRC assay plates (0–50 μM compound range) with repurchased compounds were made in a similar manner using with the Echo 550 (Beckman Coulter) using either 384 well transparent plates (Greiner Bio-One) or black-walled plates with transparent bottoms (Greiner Bio-One), respectively.
On each day of screening, cells were harvested, washed three times with PBS, and centrifuged at 300 g for 5 min. Cells were filtered using a 70 µm cell strainer and diluted to 1–2 × 10^6 cells/mL. Cell concentration and viability were assessed using the Cell countess (Invitrogen) and trypan blue assay. During assays, cells were constantly and gently stirred using a magnetic stir bar at room temperature, keeping the cells in suspension and evenly distributed to avoid clumping. HEK 293-cells expressing 2CS were dispensed at 5 μL or […] per well into assay plates (dispensed into 40 assay plates, each containing 1536 wells) pre-plated with compounds (from a DIVERset 50,000 compound library) using a Multdrop Combi liquid dispenser (Thermo Fisher Scientific, Pittsburg, PA) and sealed until needed. Because the kinetics of membrane permeability, diffusion, and/or binding of the compound to live cells may be compound-dependent, we tested two incubation times, 20 min and 120 min, for the FRET CRC. […] Plates containing eight-point concentration curves of three tool compounds (known SERCA effectors thapsigargin, BHQ, and CPA)[22] were used as positive controls for biosensor function and performance prior to running the full-scale FRET-HTS assay. […]

SERCA2a [2] = target: T2, SERCA2a (Sus scrofa, UniProt P11607); experiment: Oxalate-supported Fluo-4 Ca2+-uptake (Ca2+-transport) assay in pig cardiac SR (pCSR) vesicles; assay type: biochemical; settings: for Ca2+-Uptake C10: concentration yielding 10% effect; for CR (coupling ratio) VU/VA: maximum Ca2+-uptake rate / Ca2+-ATPase rate at [Ca2+]MAX, DMSO control = 0.66; for Decrease (inhibition) of Ca2+-uptake at [Ca2+]MAX: size of decrease; for Ca2+-Uptake ΔFMID / Ca2+-Uptake ΔFMAX: maximal compound effect vs DMSO control, pCSR; for Effect on Ca2+-uptake (category, Fig. 4A): activators, categories activate / uncouple / inhibit; for Increase in Ca2+-uptake: over [Ca2+]MAX and [Ca2+]MID
T2 construct: Cardiac SR vesicles were isolated from fresh porcine left ventricular tissue using differential centrifugation; from tissue; host or cells: porcine left ventricular tissue (cardiac SR vesicles)
Experimental: (§1) Cardiac SR vesicles were isolated from fresh porcine left ventricular tissue using differential centrifugation of the homogenized tissue as previously described. The SR vesicles were flash-frozen and stored at − 80 °C until needed. The SERCA concentration in the ER preparations purified from HEK cell homogenate is at least 10 times less than in purified porcine cardiac SR[20], but there was sufficient expression of the fluorescent SERCA2a biosensor in HEK cells to detect FRET with high precision by FLT[22],[23],[26].
Ca^2+-transport assays were performed with similar porcine SR samples as in the Ca^2+-ATPase assays described above. The compound effect on the Ca^2+-transport activity of SERCA2a was determined using an oxalate-supported assay in which the change in fluorescence in a Ca^2+-sensitive dye, Fluor-4, was determined as previously described. A buffered solution containing 50 mM MOPS (pH 7.0), 100 mM KCl, 30 mg/mL sucrose, 1 mM EGTA, 10 mM potassium oxalate, 2 µM Fluo-4, 30 µg/mL porcine cardiac SR vesicles, CaCl2 calculated to reach the free [Ca^2+] (pCa 8.0, 6.2, and 5.4), and compound (0.048 to 50 μM) was dispensed into 384-well black walled, transparent bottomed plates (Greiner Bio-One) containing the tested small molecule and incubated at 22℃ for 20 min while covered and protected from light. To start the reaction, MgATP was added to a final concentration of 5 mM, and the decrease in 485-nm excited fluorescence of Fluo-4 was monitored at 520 nm for 15 min using a FLIPR Tetra (Molecular Devices, San Jose, CA).
(§2) SERCA2a activity, F (rate of ATP hydrolysis or Ca^2+ uptake), was measured at varying pCa and varying compound concentration. F measured at [Ca^2+]MAX (saturating, pCa 5.4) or [Ca^2+]MID (subsaturating, midpoint, pCa 6.2) was corrected by subtracting the basal rate at pCa 8.0) and the % effect due to compound was reported. Concentration response curves (CRC) were fitted using the Hill function to determine VMAX (the activity at saturating [compound]), and EC50, the compound concentration at 50% effect.

SERCA2a [3] = target: T2, SERCA2a; experiment: NADH-linked Ca2+-ATPase activity assay in pig cardiac SR (pCSR) vesicles; assay type: biochemical; settings: for Ca2+-ATPase ΔFMAX / Ca2+-ATPase ΔFMID: maximal compound effect vs DMSO control, pCSR; for Effect on Ca2+-ATPase activity (category, Fig. 4A): activators, categories activate / uncouple / inhibit
Experimental: as §1
Functional assays were performed using porcine cardiac SR (pCSR) vesicles. An enzyme-coupled, NADH-linked ATPase assay was used to measure SERCA ATPase activity in 384-well microplates. Each well contained 50 mM MOPS (pH 7.0), 100 mM KCl, 1 mM EGTA, 0.2 mM NADH, 1 mM phosphoenol pyruvate, 10 IU/mL of pyruvate kinase, 10 IU/mL of lactate dehydrogenase, 7 µM of the calcium ionophore A23187 (Sigma), and CaCl2 was added to set free [Ca^2+] to three different concentrations. Ca^2+-ATPase activity was measured at three [Ca^2+]: [Ca^2+]MAX (saturating, pCa 5.4), [Ca^2+]MID (subsaturating, midpoint, pCa 6.2), and [Ca^2+]BAS (basal non-activating, pCa 8.0). 10 μg/mL of SR vesicle, calcium, compound (0.048 to 50 μM), and assay mix were incubated for 20 min at room temperature before measurement of functional assays with each of the 18 hit compounds, because a shorter incubation time than the FRET live-cell assays achieved optimal responses. The assay was started upon the addition of MgATP, at a final concentration of 5 mM (total volume to 80 μL), and absorbance was read at 340 nm in a SpectraMax Plus^384 microplate spectrophotometer (Molecular Devices, Sunnyvale, CA).
as §2

[4] = both [Ca2+], stated as size of decrease
[5] = [Ca2+]MAX (pCa5.4), concentration yielding 10% effect
[6] = [Ca2+]MID (pCa6.2), concentration yielding 10% effect

T2 sequence (P11607 1-997 isoform P11607-2): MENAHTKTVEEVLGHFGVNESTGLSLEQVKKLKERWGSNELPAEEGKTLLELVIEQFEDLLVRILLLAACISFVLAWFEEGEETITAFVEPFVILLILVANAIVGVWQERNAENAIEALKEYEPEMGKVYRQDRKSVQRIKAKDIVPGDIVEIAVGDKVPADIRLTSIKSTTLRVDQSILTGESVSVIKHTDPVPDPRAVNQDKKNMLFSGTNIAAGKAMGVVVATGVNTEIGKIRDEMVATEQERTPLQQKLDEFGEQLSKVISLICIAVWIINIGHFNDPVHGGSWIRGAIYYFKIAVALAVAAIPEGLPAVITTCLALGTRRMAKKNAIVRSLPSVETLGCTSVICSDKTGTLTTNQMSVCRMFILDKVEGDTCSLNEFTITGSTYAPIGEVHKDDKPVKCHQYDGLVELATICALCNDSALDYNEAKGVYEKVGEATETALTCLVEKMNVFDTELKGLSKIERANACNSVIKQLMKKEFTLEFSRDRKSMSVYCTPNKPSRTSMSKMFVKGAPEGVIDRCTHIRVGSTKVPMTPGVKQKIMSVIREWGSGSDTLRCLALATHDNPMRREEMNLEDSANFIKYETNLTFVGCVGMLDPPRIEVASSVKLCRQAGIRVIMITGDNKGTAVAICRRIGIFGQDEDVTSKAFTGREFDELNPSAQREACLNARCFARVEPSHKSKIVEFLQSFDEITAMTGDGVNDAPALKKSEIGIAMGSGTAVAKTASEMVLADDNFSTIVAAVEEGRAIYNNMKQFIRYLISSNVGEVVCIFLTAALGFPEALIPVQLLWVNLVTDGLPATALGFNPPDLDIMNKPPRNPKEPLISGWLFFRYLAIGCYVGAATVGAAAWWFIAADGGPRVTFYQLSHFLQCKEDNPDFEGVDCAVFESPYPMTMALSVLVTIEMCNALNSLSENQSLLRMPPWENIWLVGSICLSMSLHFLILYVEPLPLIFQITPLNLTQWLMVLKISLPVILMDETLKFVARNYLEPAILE
T1 sequence (P16615 other isoform, or with tags, fused parts or gaps with the stated changes): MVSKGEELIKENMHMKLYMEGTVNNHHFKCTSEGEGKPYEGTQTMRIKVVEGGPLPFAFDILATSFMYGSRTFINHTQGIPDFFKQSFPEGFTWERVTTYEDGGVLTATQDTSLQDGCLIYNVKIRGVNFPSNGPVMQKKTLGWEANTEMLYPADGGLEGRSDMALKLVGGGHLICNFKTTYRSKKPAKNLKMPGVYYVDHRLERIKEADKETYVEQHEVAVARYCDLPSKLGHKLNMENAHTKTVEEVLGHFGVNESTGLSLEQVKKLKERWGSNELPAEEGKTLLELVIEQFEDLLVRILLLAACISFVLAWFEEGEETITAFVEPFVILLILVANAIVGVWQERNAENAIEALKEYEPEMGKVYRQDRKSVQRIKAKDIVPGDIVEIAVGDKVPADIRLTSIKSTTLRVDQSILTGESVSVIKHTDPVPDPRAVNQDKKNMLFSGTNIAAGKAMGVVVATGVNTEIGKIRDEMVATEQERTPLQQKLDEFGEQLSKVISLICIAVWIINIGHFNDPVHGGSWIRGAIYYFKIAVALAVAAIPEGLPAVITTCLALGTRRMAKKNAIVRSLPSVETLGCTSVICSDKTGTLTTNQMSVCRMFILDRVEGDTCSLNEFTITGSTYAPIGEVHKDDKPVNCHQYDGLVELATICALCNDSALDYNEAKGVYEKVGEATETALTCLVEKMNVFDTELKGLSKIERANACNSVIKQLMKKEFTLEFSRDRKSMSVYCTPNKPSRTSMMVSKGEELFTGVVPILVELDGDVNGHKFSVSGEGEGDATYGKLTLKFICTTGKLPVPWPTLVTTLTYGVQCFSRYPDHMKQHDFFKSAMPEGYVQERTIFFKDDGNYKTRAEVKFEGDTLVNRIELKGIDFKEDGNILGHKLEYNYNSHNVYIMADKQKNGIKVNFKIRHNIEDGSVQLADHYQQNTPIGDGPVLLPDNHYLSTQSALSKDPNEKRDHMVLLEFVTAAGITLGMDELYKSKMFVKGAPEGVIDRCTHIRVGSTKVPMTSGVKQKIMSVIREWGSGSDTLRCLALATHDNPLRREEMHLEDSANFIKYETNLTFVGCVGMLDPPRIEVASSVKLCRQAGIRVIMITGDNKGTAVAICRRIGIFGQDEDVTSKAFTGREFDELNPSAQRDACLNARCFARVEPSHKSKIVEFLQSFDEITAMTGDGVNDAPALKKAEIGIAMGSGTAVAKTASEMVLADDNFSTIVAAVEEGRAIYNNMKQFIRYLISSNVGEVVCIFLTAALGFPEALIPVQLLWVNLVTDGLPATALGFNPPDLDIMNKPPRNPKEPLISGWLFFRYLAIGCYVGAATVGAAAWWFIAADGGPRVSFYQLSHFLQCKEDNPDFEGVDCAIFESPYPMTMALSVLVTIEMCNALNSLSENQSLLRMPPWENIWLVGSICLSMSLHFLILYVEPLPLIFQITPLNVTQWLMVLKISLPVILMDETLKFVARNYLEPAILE

Ca2+-Uptake C10 (SERCA2a [2]; [Ca2+]MAX (pCa5.4))	Ca2+-Uptake C10 (SERCA2a [2]; [Ca2+]MID (pCa6.2))	CR (coupling ratio) VU/VA (SERCA2a [2])	Ca2+-ATPase C10 (SERCA2a [3]; [5]) [µM]	Ca2+-ATPase C10 (SERCA2a [3]; [6]) [µM]	Ca2+-Uptake ΔFMID (SERCA2a [2]; [Ca2+]MID (pCa6.2))	Effect on Ca2+-uptake (category, Fig. 4A) (SERCA2a [2])	Ca2+-ATPase ΔFMAX (SERCA2a [3]; [Ca2+]MAX (pCa5.4))	EC50 (SERCA2a [3]; [Ca2+]MID (pCa6.2)) [µM]	Ca2+-ATPase ΔFMID (SERCA2a [3]; [Ca2+]MID (pCa6.2))	Effect on Ca2+-ATPase activity (category, Fig. 4A) (SERCA2a [3])	EC50 (SERCA2a [3]; [Ca2+]MAX (pCa5.4)) [µM]	Ca2+-Uptake ΔFMAX (SERCA2a [2]; [Ca2+]MAX (pCa5.4))	Structure (SMILES)	other results
15 µM and 15.1 µM	4 µM and 4.2 µM	0.48	9.7	8.7	17% and 17 ± 1.4%	inhibit	25% and 25 ± 6.3%	11.1 ± 1.5	30% and 30 ± 10%	activate			O=C(c1ccc(-c2ccc(O)cc2)nc1)N1CCC(CCc2ccccc2)CC1 [Compound 6, 4-(5-{[4-(2-phenylethyl)piperidin-1-yl]carbonyl}pyridin-2-yl)phenol]	EC50 (SERCA2a [2]; [Ca2+]MAX (pCa5.4)): 16 ± 1.2 µM; Decrease (inhibition) of Ca2+-uptake at [Ca2+]MAX (SERCA2a [2]): 21%; EC50 (SERCA2a [2]; [Ca2+]MID (pCa6.2)): 2.9 ± 1 µM; Increase in Ca2+-ATPase activity (SERCA2a [3]): 10–25%
14 µM	21 µM and 20.6 µM	0.74	25		19% and 19 ± 9.8%	activate	14% and 14 ± 2%		7% and 7 ± 3%	activate		24% and 24 ± 10%	CCn1nc(C)c(CN2CCCC(Nc3ccc(C(C)C)cc3)C2)c1C (stereo not shown) [Compound 7, 1-[(1-ethyl-3,5-dimethyl-1H-pyrazol-4-yl)methyl]-N-(4-isopropylphenyl)-3-piperidinamine]	
25 µM		0.4	4.3	7.8	7% and 7 ± 3.0%	uncouple	49% and 49 ± 4.8%	10 ± 1.9	31% and 31 ± 14%	activate	8.3 ± 0.9	10% and 10 ± 6.5%	COc1ccc(C(=O)C2CCCN(Cc3nc(-c4ccc(F)cc4)cs3)C2)c(OC)c1 (stereo not shown) [Compound 8, (2,4-dimethoxyphenyl)(1-{[4-(4-fluorophenyl)-1,3-thiazol-2-yl]methyl}-3-piperidinyl)methanone]	Increase in Ca2+-uptake (SERCA2a [2]): 0.5–10%; Ca2+-ATPase C10 (SERCA2a [3]; [Ca2+]MAX): 4.3 µM
50 µM		0.49			2% and 2 ± 1.0%	inhibit	8 ± 6.3%		8 ± 5.8%	activate			Cc1cnc(C)c(N2CCN(C(=O)c3cc(COc4ccc5ncccc5c4)on3)CC2)n1 [Compound 1, 6-[(3-{[4-(3,6-dimethyl-2-pyrazinyl)-1-piperazinyl]carbonyl}-5-isoxazolyl)methoxy]quinoline]	Decrease (inhibition) of Ca2+-uptake at [Ca2+]MAX (SERCA2a [2]): 10%; Increase in Ca2+-ATPase activity (SERCA2a [3]): 10–25%

Further lines, the molecule ahead of its results:

Structure (SMILES)	Ca2+-Uptake C10 (SERCA2a [2]; [Ca2+]MAX (pCa5.4))	Ca2+-Uptake C10 (SERCA2a [2]; [Ca2+]MID (pCa6.2))	CR (coupling ratio) VU/VA (SERCA2a [2])	Ca2+-ATPase C10 (SERCA2a [3]; [5]) [µM]	Ca2+-ATPase C10 (SERCA2a [3]; [6]) [µM]	Ca2+-Uptake ΔFMID (SERCA2a [2]; [Ca2+]MID (pCa6.2))	Effect on Ca2+-uptake (category, Fig. 4A) (SERCA2a [2])	Ca2+-ATPase ΔFMAX (SERCA2a [3]; [Ca2+]MAX (pCa5.4))	EC50 (SERCA2a [3]; [Ca2+]MID (pCa6.2)) [µM]	Ca2+-ATPase ΔFMID (SERCA2a [3]; [Ca2+]MID (pCa6.2))	Effect on Ca2+-ATPase activity (category, Fig. 4A) (SERCA2a [3])	EC50 (SERCA2a [3]; [Ca2+]MAX (pCa5.4)) [µM]	Ca2+-Uptake ΔFMAX (SERCA2a [2]; [Ca2+]MAX (pCa5.4))	other results
O=S(=O)(NCc1ccccc1)N1CCc2ccc(C(F)(F)F)cc2C1 [Compound 17, N-benzyl-7-(trifluoromethyl)-3,4-dihydroisoquinoline-2(1H)-sulfonamide]	1 µM	2.2 µM	0.09	6.2	5									EC50 [1]: 32 ± 5.3 µM; Decrease of ΔFMAX and ΔFMID for Ca2+-uptake (SERCA2a [2]; [4]): 70–95%; Decrease of ΔFMAX and ΔFMID for Ca2+-ATPase activity (SERCA2a [3]; [4]): ~ 50%
OCC1(Cc2ccccc2F)CCCN(Cc2cc3c(cc2Cl)OCO3)C1 (stereo not shown) [Compound 12, [1-[(6-chloro-1,3-benzodioxol-5-yl)methyl]-3-(2-fluorobenzyl)-3-piperidinyl]methanol]	0.4 µM	0.8 µM		1.0	1.0				4.2 ± 0.4			3.8 ± 0.3		EC50 (SERCA2a [2]; [Ca2+]MAX (pCa5.4)): 1.8 ± 0.1 µM; EC50 (SERCA2a [2]; [Ca2+]MID (pCa6.2)): 3.2 ± 0.1 µM
c1ccc(-c2cc(CN3CCN(c4ncnc5ccccc45)CC3)on2)cc1 [Compound 4, 4-{4-[(3-phenyl-5-isoxazolyl)methyl]-1-piperazinyl}quinazoline]		47 µM	0.51	50.0	39.2	11% and 11 ± 2.7%	uncouple	10 ± 5.3%		11 ± 6.1%	activate	15 ± 7.2	0.5% and 0.5 ± 3.2%	Increase in Ca2+-uptake (SERCA2a [2]): 0.5–10%
